Source: ChEMBL document CHEMBL5523718, “Design, synthesis, molecular modeling, in vitro and in vivo biological evaluation of potent anthranilamide derivatives as dual P-glycoprotein and CYP3A4 inhibitors” (Eur J Med Chem, 2024)
Values after ≈ are worked out from the molar mass of the structure shown. Values joined by “and” are separate entries in the source; they are usually repeats but may differ in a detail not shown here. Equal values may be shown once.

Tests used:
[1] = molecular target: ATP-dependent translocase ABCB1 (Homo sapiens, UniProt P08183); test: Inhibition of P-gp in human MES-SA/Dx5 cells; format: cell-based
Cytochrome P450 3A4 [2] = molecular target: T1, Cytochrome P450 3A4 (Homo sapiens, UniProt P08684); test: Inhibition of CYP3A4 in human liver using luciferin-IPA as substrate microsome preincubated with compound for 10 mins followed by NADPH addition and measured after 5 mins; format: ADME, microsomes
Cytochrome P450 3A4 [3] = molecular target: T1, Cytochrome P450 3A4; test: Inhibition of CYP3A4 in human Hepatocyte using Luciferin-IPA as substrate; format: ADME, cell-based
MES-SA/Dx5 = test: Cytotoxicity against human MES-SA/Dx5 cells at 1.28 uM incubated for 3 days by MTT assay relative to control; format: functional; conditions: time 3 day
[4] = Apparent permeability of compound across basolateral to apical side in human Caco-2 cells; format: ADME, cell-based
[5] = Apparent permeability across apical to basolateral side in human Caco-2 cells assessed as drug recovery; format: ADME, cell-based; conditions: read-out: Drug recovery
[6] = Apparent permeability across basolateral to apical side in human Caco-2 cells assessed as drug recovery; format: ADME, cell-based; conditions: read-out: Drug recovery
[7] = Efflux ratio of apparent permeability across basolateral to apical side over apical to basolateral side in human Caco-2 cells; format: ADME, cell-based
[8] = Equilibrium solubility of compound in PBS at pH 7.4; format: physicochemical; conditions: for solubility: buffer
[9] = Apparent permeability of compound across apical to basolateral side in human Caco-2 cells; format: ADME, cell-based

ATP-dependent translocase ABCB1, sequence (P08183 whole entry): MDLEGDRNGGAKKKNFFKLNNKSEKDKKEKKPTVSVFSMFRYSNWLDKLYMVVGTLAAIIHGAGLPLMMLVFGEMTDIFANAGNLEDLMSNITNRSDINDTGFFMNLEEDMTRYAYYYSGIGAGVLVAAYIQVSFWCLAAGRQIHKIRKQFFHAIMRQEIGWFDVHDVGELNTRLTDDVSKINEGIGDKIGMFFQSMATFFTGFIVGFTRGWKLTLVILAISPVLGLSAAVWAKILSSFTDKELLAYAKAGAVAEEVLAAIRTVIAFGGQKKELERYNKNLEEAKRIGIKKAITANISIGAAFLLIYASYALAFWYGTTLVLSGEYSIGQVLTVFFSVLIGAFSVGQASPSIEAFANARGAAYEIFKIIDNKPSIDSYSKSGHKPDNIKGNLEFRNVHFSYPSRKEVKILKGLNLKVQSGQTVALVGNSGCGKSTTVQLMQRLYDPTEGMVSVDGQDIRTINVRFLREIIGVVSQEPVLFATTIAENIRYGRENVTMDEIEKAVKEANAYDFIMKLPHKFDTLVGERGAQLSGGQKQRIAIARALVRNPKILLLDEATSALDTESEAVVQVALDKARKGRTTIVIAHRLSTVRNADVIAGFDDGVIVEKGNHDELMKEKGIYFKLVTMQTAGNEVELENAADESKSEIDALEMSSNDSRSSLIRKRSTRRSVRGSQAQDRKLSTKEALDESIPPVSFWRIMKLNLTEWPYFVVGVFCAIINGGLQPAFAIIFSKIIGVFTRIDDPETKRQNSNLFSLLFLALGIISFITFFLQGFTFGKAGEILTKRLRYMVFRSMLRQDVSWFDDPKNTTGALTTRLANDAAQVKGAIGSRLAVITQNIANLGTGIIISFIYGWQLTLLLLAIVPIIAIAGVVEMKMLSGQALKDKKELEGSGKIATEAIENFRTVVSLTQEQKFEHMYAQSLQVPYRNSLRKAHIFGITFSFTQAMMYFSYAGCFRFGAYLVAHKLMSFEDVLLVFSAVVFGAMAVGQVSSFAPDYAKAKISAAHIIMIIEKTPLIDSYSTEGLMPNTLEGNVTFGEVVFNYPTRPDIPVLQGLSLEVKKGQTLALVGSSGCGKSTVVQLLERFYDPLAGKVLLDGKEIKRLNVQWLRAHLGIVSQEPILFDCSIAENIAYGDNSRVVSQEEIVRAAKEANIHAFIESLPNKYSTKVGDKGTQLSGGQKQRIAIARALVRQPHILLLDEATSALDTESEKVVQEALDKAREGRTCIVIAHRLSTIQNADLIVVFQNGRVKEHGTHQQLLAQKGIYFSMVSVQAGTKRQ
T1 sequence (P08684 whole entry): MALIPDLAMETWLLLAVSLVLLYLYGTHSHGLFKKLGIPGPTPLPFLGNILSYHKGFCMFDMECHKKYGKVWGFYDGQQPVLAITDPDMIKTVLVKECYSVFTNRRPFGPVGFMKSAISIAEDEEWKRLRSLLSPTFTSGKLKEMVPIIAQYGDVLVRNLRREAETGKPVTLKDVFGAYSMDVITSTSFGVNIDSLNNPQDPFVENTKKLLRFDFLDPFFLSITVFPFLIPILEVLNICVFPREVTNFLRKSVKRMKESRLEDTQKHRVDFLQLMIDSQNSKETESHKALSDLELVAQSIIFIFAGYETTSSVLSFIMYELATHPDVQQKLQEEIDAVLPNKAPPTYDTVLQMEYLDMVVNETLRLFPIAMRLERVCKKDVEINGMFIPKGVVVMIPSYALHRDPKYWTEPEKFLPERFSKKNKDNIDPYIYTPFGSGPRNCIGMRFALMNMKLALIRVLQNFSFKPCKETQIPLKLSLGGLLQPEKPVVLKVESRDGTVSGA

Row | Compound | EC50 [1] | IC50 (Cytochrome P450 3A4 [2]) | IC50 (Cytochrome P450 3A4 [3]) | Activity (MES-SA/Dx5) | Papp [4] | recovery [5] | recovery [6] | Ratio [7] | Papp B→A [4] | solubility [8] | Papp A→B [9] | efflux ratio [7] | solubility thermodynamic ([8]; PBS)
1 | O=C(Nc1ccccc1C(=O)Nc1ccc(N2CCN(Cc3cccc(-c4cccnc4)c3)CC2)cc1)c1cc(=O)c2ccccc2o1 | 512 nM | 399 nM | 1860 nM | 2% |  |  |  |  |  |  |  |  | 
2 | COc1cc(NC(=O)c2cnc3ccccc3c2)c(C(=O)Nc2ccc(C3CCN(Cc4cccc(-n5cncn5)c4)CC3)cc2)cc1OC | 156 nM | 654 nM | 1760 nM | 1% |  |  |  |  |  |  |  |  | 
3 | CC(=O)N1CCN(c2ccc(OCC3COC(Cn4ccnc4)(c4ccc(Cl)cc4Cl)O3)cc2)CC1 (centres undefined) [KETOCONAZOLE] |  |  |  | 39% |  |  |  |  |  |  |  |  | 
4 | COc1cc(NC(=O)c2cc(=O)c3ccccc3o2)c(C(=O)Nc2ccc(N3CCN(Cc4ccc5c(c4)OCO5)CC3)cc2)cc1OC | 31 nM | 1640 nM | 4660 nM | 4% |  |  |  |  |  |  |  |  | 
5 | COc1cc(NC(=O)c2cc(=O)c3ccccc3o2)c(C(=O)Nc2ccc(C3CCN(Cc4cccc(-c5cccnc5)c4)CC3)cc2)cc1OC | 65 nM and 232 nM | 230 nM and 255 nM | 1180 nM and 492 nM | 0% |  |  |  |  |  |  |  |  | 
6 | COc1cc(NC(=O)c2cc(=O)c3ccccc3o2)c(C(=O)Nc2ccc(N3CCN(Cc4cccc(-n5cncn5)c4)CC3)cc2)cc1OC | 328 nM | 372 nM | 475 nM | 1% |  |  |  |  |  |  |  |  | 
7 | COc1cc(NC(=O)c2cnc3ccccc3c2)c(C(=O)Nc2ccc(C3CCN(Cc4ccc5c(cnn5C)c4)CC3)cc2)cc1OC | 26 nM | 3820 nM | 9000 nM | 3% |  |  |  |  |  |  |  |  | 
8 | COc1ccc(CN2CCN(c3ccc(NC(=O)c4cc(OC)c(OC)cc4NC(=O)c4cnc5ccccc5c4)cc3)CC2)cc1OC | 29 nM | > 9000 nM |  | 1% |  |  |  |  |  |  |  |  | 
9 | COc1cc(NC(=O)c2cnc3ccccc3c2)c(C(=O)Nc2ccc(N3CCN(Cc4cccc(-n5cncn5)c4)CC3)cc2)cc1OC | 354 nM | 245 nM | 551 nM | 1% |  |  |  |  |  |  |  |  | 
10 | COc1cc(NC(=O)c2cc(=O)c3ccccc3o2)c(C(=O)Nc2ccc(C3CCN(Cc4ccc5c(c4)OCO5)CC3)cc2)cc1OC | 51 nM | 1240 nM | 6450 nM | 1% |  |  |  |  |  |  |  |  | 
11 | COc1cc(NC(=O)c2cnc3ccccc3c2)c(C(=O)Nc2ccc(N3CCN(Cc4ccc5c(cnn5C)c4)CC3)cc2)cc1OC | 19 nM | 1880 nM | 6240 nM | 6% |  |  |  |  |  |  |  |  | 
12 | COc1cc(NC(=O)c2cnc3ccccc3c2)c(C(=O)Nc2ccc(N3CCN(Cc4ccc5c(c4)OCO5)CC3)cc2)cc1OC | 22 nM | 2110 nM | 5530 nM | 3% | 31.7 10^-6 cm/s | 75% | 75% | 14 |  |  |  |  | 
13 | COc1ccc(CN2CCC(c3ccc(NC(=O)c4cc(OC)c(OC)cc4NC(=O)c4cnc5ccccc5c4)cc3)CC2)cc1OC | 43 nM | > 9000 nM |  | 3% |  |  |  |  |  |  |  |  | 
14 | COc1ccc(CN2CCN(c3ccc(NC(=O)c4cc(OC)c(OC)cc4NC(=O)c4cc(=O)c5ccccc5o4)cc3)CC2)cc1OC | 21 nM | > 9000 nM |  | 5% |  |  |  |  |  |  |  |  | 
15 | COc1cc(NC(=O)c2cnc3ccccc3c2)c(C(=O)Nc2ccc(N3CCN(Cc4cccc(-c5cccnc5)c4)CC3)cc2)cc1OC | 55 nM | 283 nM | 1090 nM | 0% |  | 51% | 60% |  | 2.36 ×10⁻⁶ cm/s | Not Determined(Insoluble) | 1.29 ×10⁻⁶ cm/s | 1.8 | 
16 | COc1cc(NC(=O)c2cc(=O)c3ccccc3o2)c(C(=O)Nc2ccc(C3CCN(Cc4cccc(-n5cncn5)c4)CC3)cc2)cc1OC | 221 nM | 298 nM | 1330 nM | 0% |  |  |  |  |  |  |  |  | 

Row | Compound | EC50 [1] | IC50 (Cytochrome P450 3A4 [2]) | IC50 (Cytochrome P450 3A4 [3]) | Activity (MES-SA/Dx5) | Papp [4] | recovery [5] | recovery [6] | Ratio [7] | Papp B→A [4] | solubility [8] | Papp A→B [9] | efflux ratio [7] | solubility thermodynamic ([8]; PBS)
17 | COc1cc(NC(=O)c2cnc3ccccc3c2)c(C(=O)Nc2ccc(C3CCN(Cc4cccc(-c5cccnc5)c4)CC3)cc2)cc1OC | 108 nM | 245 nM | 967 nM | 0% |  |  |  |  |  |  |  |  | 
18 | COc1cc(NC(=O)c2cc(=O)c3ccccc3o2)c(C(=O)Nc2ccc(N3CCN(Cc4cccc(-c5ccncc5)c4)CC3)cc2)cc1OC | 121 nM | 449 nM | 1640 nM | 0% |  |  |  |  |  |  |  |  | 
19 | COc1cc(NC(=O)c2cc(=O)c3ccccc3o2)c(C(=O)Nc2ccc(N3CCN(Cc4ccc5c(cnn5C)c4)CC3)cc2)cc1OC | 14 nM | 1060 nM | 8120 nM | 2% |  |  |  |  |  |  |  |  | 
20 | C[C@H]1O[C@@H](O[C@H]2[C@@H](O)C[C@H](O[C@H]3[C@@H](O)C[C@H](O[C@H]4CC[C@@]5(C)[C@H](CC[C@@H]6[C@@H]5C[C@@H](O)[C@]5(C)[C@@H](C7=CC(=O)OC7)CC[C@]65O)C4)O[C@@H]3C)O[C@@H]2C)C[C@H](O)[C@@H]1O [DIGOXIN] |  |  |  |  |  | 56% | 68% |  | 12.1 ×10⁻⁶ cm/s |  | 0.98 ×10⁻⁶ cm/s | 12.2 | 
21 | COc1ccc(CN2CCC(c3ccc(NC(=O)c4cc(OC)c(OC)cc4NC(=O)c4cc(=O)c5ccccc5o4)cc3)CC2)cc1OC | 40 nM | > 9000 nM |  | 0% |  |  |  |  |  |  |  |  | 
22 | COc1cc(NC(=O)c2cc(=O)c3ccccc3o2)c(C(=O)Nc2ccc(C3CCN(Cc4cccc(-c5ccncc5)c4)CC3)cc2)cc1OC | 167 nM and 212 nM | 153 nM and 216 nM | 1250 nM and 1160 nM | 1% |  |  |  |  |  |  |  |  | 
23 | COc1cc(NC(=O)c2cnc3ccccc3c2)c(C(=O)Nc2ccc(C3CCN(Cc4cccc(-c5ccncc5)c4)CC3)cc2)cc1OC | 188 nM | 1120 nM | 3210 nM | 3% |  |  |  |  |  |  |  |  | 
24 | COc1cc(NC(=O)c2cnc3ccccc3c2)c(C(=O)Nc2ccc(C3CCN(Cc4cccc(-n5ccnc5)c4)CC3)cc2)cc1OC | 45 nM | 334 nM | 1240 nM | 1% |  | 61% | 72% |  | 0.4 ×10⁻⁶ cm/s | Not Determined(Insoluble) | 0.55 ×10⁻⁶ cm/s | 0.7 | 
25 | COc1cc(NC(=O)c2cc(=O)c3ccccc3o2)c(C(=O)Nc2ccc(N3CCN(Cc4cccc(-c5cccnc5)c4)CC3)cc2)cc1OC | 43 nM | 339 nM | 609 nM | 0% |  | 62% | 86% |  | < 0.08 ×10⁻⁶ cm/s | Not Determined(Insoluble) | 0.06 ×10⁻⁶ cm/s |  | 
26 | COc1cc(NC(=O)c2cnc3ccccc3c2)c(C(=O)Nc2ccc(N3CCN(Cc4cccc(-c5ccncc5)c4)CC3)cc2)cc1OC | 98 nM | 540 nM | 1770 nM | 2% |  |  |  |  |  |  |  |  | 
27 | COc1cc(NC(=O)c2cc(=O)c3ccccc3o2)c(C(=O)Nc2ccc(C3CCN(Cc4ccc5c(cnn5C)c4)CC3)cc2)cc1OC | 30 nM | 1180 nM | 5970 nM | 1% |  |  |  |  |  |  |  |  | 
28 | COc1cc(NC(=O)c2cnc3ccccc3c2)c(C(=O)Nc2ccc(C3CCN(Cc4ccc5c(c4)OCO5)CC3)cc2)cc1OC | 39 nM | 3210 nM | 9000 nM | 1% |  |  |  |  |  |  |  |  | 
29 | COc1cc(NC(=O)c2cnc3ccccc3c2)c(C(=O)Nc2ccc(N3CCN(Cc4cccc(-n5ccnc5)c4)CC3)cc2)cc1OC | 33 nM | 267 nM | 1890 nM | 0% |  | 69% | 74% |  | 0.27 ×10⁻⁶ cm/s |  | 0.17 ×10⁻⁶ cm/s | 1.6 | 0.092 µM (≈ 0.0614 µg/mL)
30 | COc1cc(NC(=O)c2cc(=O)c3ccccc3o2)c(C(=O)Nc2ccc(N3CCN(Cc4cccc(-n5ccnc5)c4)CC3)cc2)cc1OC | 39 nM | 162 nM | 2400 nM | 0% |  |  |  |  |  |  |  |  | 
31 | COc1ccc(CN2CCN(c3ccc(NC(=O)c4ccccc4NC(=O)c4cc(=O)c5ccccc5o4)cc3)CC2)cc1OC | 422 nM | > 9000 nM |  | 0% |  |  |  |  |  |  |  |  | 
